Laboratory results reported in patent US9060987B2, “Methods for treating gout flares” (CymaBay Therapeutics, Inc., priority 2011, dated 2015).

Legend:
[1] = Plasma concentration of (−)-halofenic acid during and after 30-day daily oral 400 mg arhalofenate; format: in vivo, human
Procedure: Methods used in relation to FIGS. 1-2 showing the pharmacokinetic profile of (−)-halofenic acid were as follows:
Plasma proteins in human plasma samples containing of (−)-halofenic acid, an internal standard (I.S.) and heparin as the anticoagulant were precipitated with acetonitrile. The samples were vortex mixed, centrifuged and an aliquot was analyzed by reversed phase high performance liquid chromatography using a Phenomenex Polar RP column maintained at 45° C. The mobile phase was nebulized using heated nitrogen in a Z-spray source/interface and the ionized compounds were detected using a tandem quadrupole mass spectrometer.
The plasma concentrations were rounded to the nearest one-tenth μg/mL before the calculations. Plasma samples with concentrations below the quantifiable limit of 1.0 μg/mL (BQL) were assigned values of zero.

gout patients = conditions: monotherapy at 40, 80, 120, 160 and 240 mg/day; cited from earlier work
healthy adult subjects = assay: Phase 1 multiple-dose study, serum uric acid after once daily oral dosing for 10 days; format: in vivo, human; conditions: all dose levels tested, FIG. 3 and Table 1
Procedure: Methods used in relation to FIG. 3 showing reduction in serum uric acid in subjects over time following once daily dosing with arhalofenate were as follows.
A single centre Phase 1, placebo- and positive-controlled, double-blind, randomized, dose escalation study was conducted to evaluate the multiple-dose pharmacokinetics (PK) of (−)-halofenate administered as a daily dose orally for 10 days, at the protocol-specified doses in healthy adult subjects. A total of 119 subjects completed study treatment according to protocol: 6 subjects received (−)-halofenate 100 mg/day for 10 days; 6 subjects received (−)-halofenate 200 mg/day for 10 days; 9 subjects received (−)-halofenate 400 mg/day for 10 days; 20 subjects received (−)-halofenate 600 mg/day for 10 days; 10 subjects received (−)-halofenate 600 mg Enteric Coated (EC)/day for 10 days; 9 subjects received (−)-halofenate 800 mg EC/day for 10 days; 10 subjects received (−)-halofenate 1000 mg EC/day for 10 days; 24 subjects received placebo treatment daily for 10 days; and 25 subjects received naproxen 500 mg b.i.d. monotherapy for 7 days. In this study, serum uric acid was measured at screening and on Days 1, 3, 5, 7, 9, 14 and 21.

murine 3T3-L1 adipocytes = assay: Suppression of uric-acid induced inflammation in vitro; format: cell-based; conditions: 50-150 μM, uric acid 5 or 15 mg/dL, 3 or 7 days
Procedure: Differentiated murine 3T3-L1 adipocytes are cultured in vitro in 24 well plates. To the culture medium (−)-halofenic acid is added at a final concentration of 50-150 μM prior to the addition of uric acid at 5 mg/dL or 15 mg/dL and the culture continued for 3 or 7 days. A parallel culture of cells is conducted in the presence of a vehicle such as dimethylsulfoxide (DMSO). At the end of the culture period media is removed, cells are isolated and messenger RNA prepared. The levels of secreted cytokines representing a panel of pro-inflammatory cytokines including but not restricted to monocyte chemoattractant protein-1 (MCP-1), tumor necrosis factor α (TNF-α), interleukin-1β, (IL-1β), interleukin-6 (IL-6) and interleukin-12 (Il-12) are determined in the media isolated from the cells using commercially available cytokine assay kits. The levels of gene expression for the mRNAs for a panel of pro-inflammatory cytokines including but not restricted to monocyte chemoattractant protein-1 (MCP-1), tumor necrosis factor α (TNF-α), interleukin-1β, (IL-1β), interleukin-6 (IL-6) and interleukin-12 (Il-12) are determined using real-time PCR. […] A similar study is also conducted in primary mouse macrophages and human umbilical vein endothelial cells.

[2] = test system: gout patients with hyperuricemia; assay: Randomized, double-blind, placebo-controlled 4-week monotherapy trial: sUA reduction and flare prevention; format: in vivo, human; conditions: for Flares considered moderate in severity by the investigator / Patients who reported flare during the Treatment Phase / Patients with flare that required medication (additional colchicine and/or NSAIDs) / Mean duration of Flares Requiring Treatment / Mean duration of Total flares / Mean sUA absolute change from baseline (Day 1) / Mean sUA percent change from baseline (Day 1): 4 weeks; for Mean sUA absolute change from baseline (Day 1) / Mean sUA percent change from baseline (Day 1): PP population; for Mean sUA percent change from baseline (Day 1): colchicine 0.6 mg background
Procedure: Study Design: This was a randomized, double-blind, placebo-controlled study of 400 mg and 600 mg arhalofenate administered daily for 4 weeks as monotherapy in patients with gout (per criteria of the American Rheumatism Association) with hyperuricemia. Patients using urate lowering therapy (ULT) must have been willing to discontinue treatment for the duration of the study. Patients with a recent history of an acute gout flare must have been symptom free for at least 1 week prior to screening. Upon successful completion of screening, patients entered into a minimum 3-week Run-in/Stabilization Phase. During this phase, patients on existing ULT were asked to temporarily discontinue their current therapy. Patients also started colchicine 0.6 mg once daily until the final study visit as prophylaxis to prevent potential gout flares. Patient who met final eligibility criteria were randomized (1:1:1) into the Treatment Phase to receive Placebo, arhalofenate 400 mg, or arhalofenate 600 mg. Each randomized patient took double-blind study medication daily for a period of four weeks beginning at Day 1 (Visit 3). Patients returned to the study site after 2 weeks at Visit 4 and then weekly at Visits 5 and 6 (Weeks 3 and 4). A Follow-up Visit (Visit 7) took place 2 weeks after the last dose of study medication. […] Patients with a recent history of an acute gout flare must have been symptom free for at least 1 week prior to both screening and randomization. Criteria for Evaluation: The primary efficacy analysis compared the percentage change in sUA from baseline to end of treatment between the treatment groups. In addition, gout flares were captured as special interest event and the incidence of gout flares (all flares and flares that required treatment), severity (as assessed either mild, moderate, or severe by the Principal Investigator), and duration (days) were compared between treatment groups.

[3] = test system: gout patients with hyperuricemia; assay: Open-label trial of arhalofenate in combination with febuxostat vs febuxostat alone: sUA reduction and flare prevention; format: in vivo, human
Procedure: Study Design: This was an open-label study to determine the sUA reduction and flare prevention with arhalofenate in combination with febuxostat and compared that with febuxostat alone in gout patients (per criteria of the American Rheumatism Association) with hyperuricemia when arhalofenate administered at 400 mg once daily orally for 2 weeks (Weeks 2-3) and then increased to 600 mg once daily orally for an additional 2 weeks (Weeks 4-5) in addition to 80 mg febuxostat once daily orally (Weeks 1-5). Patients with a recent history of an acute gout flare must have been symptom free for at least 1 week prior to screening.
All patients who met the screening criteria started a 2-week Run-in/Stabilization Phase at the same time as out-patient basis. During this phase, patients on existing urate lowering therapy were asked to discontinue their current therapy for the duration of the study. At the same time, patients also started colchicine 0.6 mg once daily as prophylaxis to prevent potential gout flares. Upon completing the Run-in/Stabilization Phase, patients were reassessed at Day −2 (Visit 2) to confirm the final eligibility for the Treatment Phase. The sUA at this visit must have been ≧8.0 mg/dL and ≦10 mg/dL to qualify for the Treatment Phase. In addition, all safety lab values must have met the eligibility criteria at this visit. Patients successfully meeting the eligibility criteria entered the study site for an in-clinic stay for a total of 37 consecutive days.
The Treatment Phase began on Day 1 and continued for 5 weeks until Day 35. The Treatment Phase consisted of 3 sequential drug dosing periods:
80 mg febuxostat orally once daily from Days 1 through 7 (Febuxostat Period).
80 mg febuxostat plus 400 mg arhalofenate orally once daily from Days 8 through 21 (Febuxostat plus 400 mg arhalofenate Period).
80 mg febuxostat plus 600 mg arhalofenate orally once daily from Days 22 through 35 (Febuxostat plus 600 mg arhalofenate Period).
In addition, all patients continued to receive 0.6 mg colchicine daily for gout flare prophylaxis.
Efficacy of febuxostat plus arhalofenate combination treatment was assessed by the proportion of patients achieving a sUA<6 mg/dL, <5 mg/dL, <4 mg/dL, and <3 mg/dL at Day 22 and Day 36. In addition, absolute and percent changes in sUA at Day 22 and Day 36 from baseline (Day 1) were also evaluated. Gout flares were captured as special interest event in this study. The incidence of gout flares, severity (as assessed either mild, moderate, or severe by the Principal Investigator), and duration (days) were compared between treatment periods.

[4] = Day 8, after one week of daily 80 mg febuxostat

Structure (SMILES): O=C(O)C(Oc1cccc(C(F)(F)F)c1)c1ccc(Cl)cc1 (single isomer, unassigned; (-)) [(−)-halofenic acid, (−)-4-chlorophenyl-(3-trifluoromethylphenoxy)acetic acid]
- Half-life of (−)-halofenic acid in plasma ([1]; daily oral 400 mg arhalofenate for 30 days, FIGS. 1-2): a long half-life with sustained drug levels present for several days after the final dose
- Intraday plasma concentration profile ([1]; daily oral 400 mg arhalofenate, Day 15 and Day 30, FIG. 2): a relatively constant intraday plasma concentration

Structure (SMILES): O=c1[nH]cnc2c(CN3C[C@H](CO)[C@@H](O)C3)c[nH]c12 [Ulodesine, 7-(((3R,4R)-3-hydroxy-4-(hydroxymethyl)pyrrolidin-1-yl)methyl)-3H-pyrrolo[3,2-d]pyrimidin-4(5H)-one]
- Serum uric acid in gout patients (gout patients): rapidly and significantly reduced serum uric acid

Structure (SMILES): CC(=O)NCCOC(=O)[C@H](Oc1cccc(C(F)(F)F)c1)c1ccc(Cl)cc1 [arhalofenate, (−)-(R)-(4-chloro-phenyl)-(3-trifluoromethyl-phenoxy)-acetic acid 2-acetylamino-ethyl ester]
- Reduction in serum uric acid over time (healthy adult subjects): gradual reduction in serum uric acid over a period of time at all dose levels tested, and in a dose dependent manner
- Uptake of uric acid into 3T3-L1 adipocytes (murine 3T3-L1 adipocytes): prevents the uptake of uric acid into 3T3-L1 adipocytes
- Uric acid induced inflammatory response (expression and secretion of pro-inflammatory cytokines) (murine 3T3-L1 adipocytes): suppresses the uric acid induced inflammatory response
- Flares considered moderate in severity by the investigator ([2]; 400 mg daily): 2 of 4
- Patients who reported flare during the Treatment Phase ([2]; 400 mg daily, FIG. 4): 19.0%
- Patients with flare that required medication (additional colchicine and/or NSAIDs) ([2]; 400 mg daily, FIG. 4): 4.8%
- Mean duration of Flares Requiring Treatment ([2]; 400 mg daily, FIG. 5): 2.0 days
- Mean duration of Total flares ([2]; 400 mg daily, FIG. 5): 1.3 days
- Mean sUA absolute change from baseline (Day 1) ([2]; 400 mg daily): -1.4 mg/dL
- Mean sUA percent change from baseline (Day 1) ([2]; 400 mg daily): −15.4%
- Flares considered moderate in severity by the investigator ([2]; 600 mg daily): 0 of 2
- Patients who reported flare during the Treatment Phase ([2]; 600 mg daily, FIG. 4): 4.3%
- Patients with flare that required medication (additional colchicine and/or NSAIDs) ([2]; 600 mg daily, FIG. 4): 4.3%
- Mean duration of Flares Requiring Treatment ([2]; 600 mg daily, FIG. 5): 1.0 days
- Mean duration of Total flares ([2]; 600 mg daily, FIG. 5): 1.0 days
- Mean sUA absolute change from baseline (Day 1) ([2]; 600 mg daily): -2.3 mg/dL
- Mean sUA percent change from baseline (Day 1) ([2]; 600 mg daily): −23%
- Incidence of any flares (Total flare) and flares requiring treatment compared to placebo ([2]; monotherapy, FIG. 4): dose dependently reduced the incidence of any flares (Total flare) and flares requiring treatment compared to placebo
- Duration of all flares (any flares and flares requiring treatment) ([2]; monotherapy, FIG. 5): also reduced the duration of all flares

Structure (SMILES): Cc1nc(-c2ccc(OCC(C)C)c(C#N)c2)sc1C(=O)O [febuxostat, 2-(3-cyano-4-isobutoxyphenyl)-4-methyl-1,3-thiazole-5-carboxylic acid]
- Patients who experienced gout flares ([3]; 1 week of febuxostat only period (80 mg), colchicine 0.6 mg background): 2 patients
- Patients who reached sUA <4 mg/dL [3, 4]: 9%
- Patients who reached sUA <5 mg/dL [3, 4]: 55%
- Patients who reached sUA target of <6 mg/dL [3, 4]: 100%
- Patients who reported flare, adjusted by duration of treatment ([3]; febuxostat only period, FIG. 6): 18.2 % patients/week
- Mean duration of the gout flares ([3]; febuxostat only period, FIG. 7): 6.5 days
